In PubChem BioAssay (NCI):
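How tested: cells in 96-well plates exposed to compound for 48 hours at five concentrations. TGI denotes the concentration required for complete inhibition of growth.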

Legend:
Assay in all cases: NCI tumour cell line growth inhibition, 48 h
SR leukemia = test system: SR leukemia
SK-MEL-5 melanoma = test system: SK-MEL-5 melanoma
NCI-H226 lung = test system: NCI-H226 lung
HT29 colon = test system: HT29 colon
NCI-H23 lung = test system: NCI-H23 lung
NCI-H460 lung = test system: NCI-H460 lung
SK-OV-3 ovarian = test system: SK-OV-3 ovarian
M14 melanoma = test system: M14 melanoma
HCT-116 colon = test system: HCT-116 colon
COLO 205 colon = test system: COLO 205 colon
UACC-257 melanoma = test system: UACC-257 melanoma
SK-MEL-28 melanoma = test system: SK-MEL-28 melanoma
CCRF-CEM leukemia = test system: CCRF-CEM leukemia
HOP-62 NSCLC = test system: HOP-62 NSCLC
NCI-H522 lung = test system: NCI-H522 lung
NCI/ADR-RES ovarian = test system: NCI/ADR-RES ovarian
HCC-2998 colon = test system: HCC-2998 colon
SNB-19 CNS = test system: SNB-19 CNS
RXF 393 renal = test system: RXF 393 renal
BT-549 breast = test system: BT-549 breast
A549 NSCLC = test system: A549 NSCLC
SF-295 CNS = test system: SF-295 CNS
OVCAR-5 ovarian = test system: OVCAR-5 ovarian
MDA-MB-435 = test system: MDA-MB-435
SNB-75 CNS = test system: SNB-75 CNS
MDA-N = test system: MDA-N
CAKI-1 renal = test system: CAKI-1 renal
ACHN renal = test system: ACHN renal
OVCAR-4 ovarian = test system: OVCAR-4 ovarian
EKVX NSCLC = test system: EKVX NSCLC
SN12C renal = test system: SN12C renal
PC-3 prostate = test system: PC-3 prostate
MALME-3M melanoma = test system: MALME-3M melanoma
MCF7 breast = test system: MCF7 breast
SK-MEL-2 melanoma = test system: SK-MEL-2 melanoma
OVCAR-3 ovarian = test system: OVCAR-3 ovarian
UO-31 renal = test system: UO-31 renal
OVCAR-8 ovarian = test system: OVCAR-8 ovarian
SW-620 colon = test system: SW-620 colon
SF-268 CNS = test system: SF-268 CNS
T-47D breast = test system: T-47D breast
TK-10 renal = test system: TK-10 renal
UACC-62 melanoma = test system: UACC-62 melanoma
IGROV1 ovarian = test system: IGROV1 ovarian
HS 578T breast = test system: HS 578T breast
SF-539 CNS = test system: SF-539 CNS
786-0 renal = test system: 786-0 renal
LOX IMVI melanoma = test system: LOX IMVI melanoma
MDA-MB-231 breast = test system: MDA-MB-231 breast
DU-145 prostate = test system: DU-145 prostate
KM12 colon = test system: KM12 colon
K-562 leukemia = test system: K-562 leukemia
RPMI-8226 leukemia = test system: RPMI-8226 leukemia
HCT-15 colon = test system: HCT-15 colon
MOLT-4 leukemia = test system: MOLT-4 leukemia
U251 CNS = test system: U251 CNS
HOP-92 NSCLC = test system: HOP-92 NSCLC

CC1=C(C(=O)OCCc2ccc([N+](=O)[O-])cc2)C(c2ccccc2C(F)(F)F)C(C(=O)OC(C)C)=C(C)N1 (centres undefined)
TGI (SR leukemia): > 100 µM
TGI (SK-MEL-5 melanoma): 3.09 µM
TGI (NCI-H226 lung): 21.5 µM
TGI (HT29 colon): > 100 µM
TGI (NCI-H23 lung): > 100 µM
TGI (NCI-H460 lung): > 100 µM
TGI (SK-OV-3 ovarian): 30.6 µM
TGI (M14 melanoma): 16.2 µM
TGI (HCT-116 colon): > 100 µM
TGI (COLO 205 colon): 16.3 µM
TGI (UACC-257 melanoma): > 100 µM
TGI (SK-MEL-28 melanoma): > 100 µM
TGI (CCRF-CEM leukemia): > 100 µM
TGI (HOP-62 NSCLC): > 100 µM
TGI (NCI-H522 lung): 7.5 µM
TGI (NCI/ADR-RES ovarian): > 100 µM
TGI (HCC-2998 colon): > 100 µM
TGI (SNB-19 CNS): > 100 µM
TGI (RXF 393 renal): 7.34 µM
TGI (BT-549 breast): > 100 µM
TGI (A549 NSCLC): > 100 µM
TGI (SF-295 CNS): > 100 µM
TGI (OVCAR-5 ovarian): > 100 µM
TGI (MDA-MB-435): > 100 µM
TGI (SNB-75 CNS): > 100 µM
TGI (MDA-N): > 100 µM
TGI (CAKI-1 renal): > 100 µM
TGI (ACHN renal): > 100 µM
TGI (OVCAR-4 ovarian): > 100 µM
TGI (EKVX NSCLC): 6.51 µM
TGI (SN12C renal): 26.7 µM
TGI (PC-3 prostate): > 100 µM
TGI (MALME-3M melanoma): 28.5 µM
TGI (MCF7 breast): > 100 µM
TGI (SK-MEL-2 melanoma): 7.16 µM
TGI (OVCAR-3 ovarian): > 100 µM
TGI (UO-31 renal): > 100 µM
TGI (OVCAR-8 ovarian): > 100 µM
TGI (SW-620 colon): > 100 µM
TGI (SF-268 CNS): > 100 µM
TGI (T-47D breast): > 100 µM
TGI (TK-10 renal): > 100 µM
TGI (UACC-62 melanoma): 36.5 µM
TGI (IGROV1 ovarian): > 100 µM
TGI (HS 578T breast): 61.6 µM
TGI (SF-539 CNS): > 100 µM
TGI (786-0 renal): > 100 µM
TGI (LOX IMVI melanoma): > 100 µM
TGI (MDA-MB-231 breast): > 100 µM
TGI (DU-145 prostate): > 100 µM
TGI (KM12 colon): 31 µM
TGI (K-562 leukemia): > 100 µM
TGI (RPMI-8226 leukemia): > 100 µM
TGI (HCT-15 colon): > 100 µM
TGI (MOLT-4 leukemia): 7.95 µM
TGI (U251 CNS): > 100 µM

CCN(CC)CCC(=O)c1ccc(Oc2ccc(C)cc2)cc1
TGI (SR leukemia): > 100 µM
TGI (NCI-H226 lung): 86.8 µM
TGI (HT29 colon): 35.6 µM
TGI (NCI-H23 lung): 34.8 µM
TGI (SK-OV-3 ovarian): 88.7 µM
TGI (M14 melanoma): 31.9 µM
TGI (HCT-116 colon): 31.2 µM
TGI (COLO 205 colon): 45.1 µM
TGI (UACC-257 melanoma): 34.4 µM
TGI (SK-MEL-28 melanoma): 30.5 µM
TGI (CCRF-CEM leukemia): 89.7 µM
TGI (HOP-62 NSCLC): 39.3 µM
TGI (NCI/ADR-RES ovarian): 51.2 µM
TGI (HCC-2998 colon): 36.2 µM
TGI (SNB-19 CNS): 33.3 µM
TGI (RXF 393 renal): 30.2 µM
TGI (BT-549 breast): 32.7 µM
TGI (A549 NSCLC): > 100 µM
TGI (SF-295 CNS): 36.4 µM
TGI (OVCAR-5 ovarian): 41 µM
TGI (MDA-MB-435): 32 µM
TGI (SNB-75 CNS): 35.7 µM
TGI (MDA-N): 31.5 µM
TGI (CAKI-1 renal): 31.1 µM
TGI (ACHN renal): 38.1 µM
TGI (OVCAR-4 ovarian): 55.3 µM
TGI (EKVX NSCLC): 38.2 µM
TGI (SN12C renal): 30.4 µM
TGI (PC-3 prostate): 38.2 µM
TGI (MALME-3M melanoma): 33.7 µM
TGI (MCF7 breast): 32.9 µM
TGI (SK-MEL-2 melanoma): > 100 µM
TGI (OVCAR-3 ovarian): 32.4 µM
TGI (OVCAR-8 ovarian): 39.4 µM
TGI (SW-620 colon): 33.8 µM
TGI (SF-268 CNS): 33.8 µM
TGI (T-47D breast): 40.2 µM
TGI (TK-10 renal): 32.5 µM
TGI (UACC-62 melanoma): 31.3 µM
TGI (IGROV1 ovarian): 35.7 µM
TGI (HS 578T breast): 44.6 µM
TGI (HOP-92 NSCLC): 39.3 µM
TGI (SF-539 CNS): 33.1 µM
TGI (786-0 renal): 30.1 µM
TGI (LOX IMVI melanoma): 31 µM
TGI (MDA-MB-231 breast): 31 µM
TGI (DU-145 prostate): 95.3 µM
TGI (KM12 colon): 23.9 µM
TGI (K-562 leukemia): > 100 µM
TGI (RPMI-8226 leukemia): 65.9 µM
TGI (HCT-15 colon): 33.8 µM
TGI (MOLT-4 leukemia): 60.7 µM
TGI (U251 CNS): 30.7 µM
